From PubChem BioAssay (NCI)
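Assay format: 96-well plates, 48-hour exposure. At the TGI there is no net growth.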

What was measured:
Assay in all cases: NCI anticancer screen, dose series, 48 h
EKVX NSCLC = test system: EKVX NSCLC
A549 NSCLC = test system: A549 NSCLC
SN12C renal = test system: SN12C renal
IGROV1 ovarian = test system: IGROV1 ovarian
SK-OV-3 ovarian = test system: SK-OV-3 ovarian
RPMI-8226 leukemia = test system: RPMI-8226 leukemia
A498 renal = test system: A498 renal
PC-3 prostate = test system: PC-3 prostate
SK-MEL-5 melanoma = test system: SK-MEL-5 melanoma
KM12 colon = test system: KM12 colon
UACC-62 melanoma = test system: UACC-62 melanoma
SNB-75 CNS = test system: SNB-75 CNS

C=C(Cl)C(C)(Cl)CCC(Cl)C(C)C (stereo not drawn)
TGI (EKVX NSCLC): > 100 µM
TGI (A549 NSCLC): > 100 µM
TGI (SN12C renal): > 100 µM
TGI (IGROV1 ovarian): > 100 µM
TGI (SK-OV-3 ovarian): > 100 µM
TGI (RPMI-8226 leukemia): > 100 µM
TGI (A498 renal): > 100 µM
TGI (PC-3 prostate): > 100 µM
TGI (SK-MEL-5 melanoma): > 100 µM
TGI (KM12 colon): > 100 µM
TGI (UACC-62 melanoma): > 100 µM
TGI (SNB-75 CNS): > 100 µM

NC(=O)Cn1c(=O)oc2cc(C(=O)CN3CCOCC3)ccc21
TGI (EKVX NSCLC): > 100 µM
TGI (SN12C renal): > 100 µM
TGI (IGROV1 ovarian): > 100 µM
TGI (SK-OV-3 ovarian): > 100 µM
TGI (RPMI-8226 leukemia): > 100 µM
TGI (A498 renal): > 100 µM
TGI (PC-3 prostate): > 100 µM
TGI (SK-MEL-5 melanoma): > 100 µM
TGI (KM12 colon): > 100 µM
TGI (SNB-75 CNS): > 100 µM

CC1(C)CCCCCCCCCC2CC2CCC(C)(C)C1=O (stereo not drawn)
TGI (EKVX NSCLC): 39.3 µM
TGI (A549 NSCLC): 57.5 µM
TGI (SN12C renal): 35.7 µM
TGI (IGROV1 ovarian): > 100 µM
TGI (SK-OV-3 ovarian): > 100 µM
TGI (RPMI-8226 leukemia): 75.9 µM
TGI (A498 renal): > 100 µM
TGI (PC-3 prostate): 70.9 µM
TGI (SK-MEL-5 melanoma): 43.2 µM
TGI (KM12 colon): 34.9 µM
TGI (UACC-62 melanoma): > 100 µM
TGI (SNB-75 CNS): 71.1 µM

CCOC(=O)C(NC(=O)CC)(Nc1ccc(F)cc1F)C(F)(F)F (stereo not drawn)
TGI (EKVX NSCLC): > 100 µM
TGI (A549 NSCLC): > 100 µM
TGI (SN12C renal): > 100 µM
TGI (IGROV1 ovarian): > 100 µM
TGI (SK-OV-3 ovarian): > 100 µM
TGI (RPMI-8226 leukemia): > 100 µM
TGI (A498 renal): > 100 µM
TGI (PC-3 prostate): > 100 µM
TGI (SK-MEL-5 melanoma): > 100 µM
TGI (SNB-75 CNS): > 100 µM

COC(=O)/N=[N+](\[O-])C(c1ccccc1)c1ccccc1
TGI (EKVX NSCLC): > 100 µM
TGI (A549 NSCLC): > 100 µM
TGI (SN12C renal): > 100 µM
TGI (IGROV1 ovarian): > 100 µM
TGI (SK-OV-3 ovarian): > 100 µM
TGI (RPMI-8226 leukemia): > 100 µM
TGI (A498 renal): > 100 µM
TGI (PC-3 prostate): > 100 µM
TGI (SK-MEL-5 melanoma): > 100 µM
TGI (KM12 colon): > 100 µM
TGI (UACC-62 melanoma): > 100 µM
TGI (SNB-75 CNS): > 100 µM

CC(=O)Nc1cc2nc3n(c2cc1C)CCC3OC(C)=O (stereo not drawn)
TGI (EKVX NSCLC): > 100 µM
TGI (A549 NSCLC): > 100 µM
TGI (SN12C renal): > 100 µM
TGI (IGROV1 ovarian): > 100 µM
TGI (SK-OV-3 ovarian): > 100 µM
TGI (RPMI-8226 leukemia): > 100 µM
TGI (A498 renal): > 100 µM
TGI (PC-3 prostate): > 100 µM
TGI (KM12 colon): > 100 µM
TGI (UACC-62 melanoma): > 100 µM
TGI (SNB-75 CNS): > 100 µM

C[N+]12C=CC=C1C(N1CCCC1)c1scc(-c3ccc(F)cc3)c12 (stereo not drawn)
TGI (EKVX NSCLC): > 100 µM
TGI (A549 NSCLC): > 100 µM
TGI (SN12C renal): > 100 µM
TGI (IGROV1 ovarian): 36.1 µM
TGI (SK-OV-3 ovarian): > 100 µM
TGI (RPMI-8226 leukemia): > 100 µM
TGI (A498 renal): > 100 µM
TGI (PC-3 prostate): > 100 µM
TGI (SK-MEL-5 melanoma): 36.2 µM
TGI (KM12 colon): > 100 µM
TGI (UACC-62 melanoma): > 100 µM
TGI (SNB-75 CNS): > 100 µM

CC(=O)NC1COC(COC(=O)CCCCCCCCCCNC(=O)c2ccc([N+](=O)[O-])c3c(=O)c4ccccc4[nH]c23)C(O)C1OC(C)C(=O)NC(C(=O)NC(CCC(N)=O)C(=O)OCc1ccccc1)C(C)C (stereo not drawn)
TGI (EKVX NSCLC): 27.8 µM
TGI (A549 NSCLC): 71.9 µM
TGI (SN12C renal): > 92.6 µM
TGI (IGROV1 ovarian): 18.3 µM
TGI (SK-OV-3 ovarian): 78.8 µM
TGI (RPMI-8226 leukemia): 23.1 µM
TGI (A498 renal): 47.7 µM
TGI (PC-3 prostate): 26.4 µM
TGI (SK-MEL-5 melanoma): 57.9 µM
TGI (KM12 colon): 11.6 µM
TGI (UACC-62 melanoma): 58.9 µM
TGI (SNB-75 CNS): 55.6 µM

Cc1cccc(C)c1N=Nc1ccc(O)c(CN(C)C)c1
TGI (EKVX NSCLC): > 100 µM
TGI (A549 NSCLC): > 100 µM
TGI (SN12C renal): > 100 µM
TGI (IGROV1 ovarian): > 100 µM
TGI (SK-OV-3 ovarian): > 100 µM
TGI (RPMI-8226 leukemia): > 100 µM
TGI (A498 renal): > 100 µM
TGI (PC-3 prostate): > 100 µM
TGI (SK-MEL-5 melanoma): 25.2 µM
TGI (KM12 colon): > 100 µM
TGI (UACC-62 melanoma): 64.6 µM
TGI (SNB-75 CNS): > 100 µM
